For the series, the system named is rodent lifetime carcinogenesis bioassay, tumor incidence TD50. The series can be described thus: chronic cancer bioassays in animals – CPDB, compiled studies (AID 1745844).

Molecules are shown by their SMILES. Activity calls are given as the source filed them. The rule behind the calls is not given here.

Drawing on PubChem BioAssay AID1745844 (Carcinogenic Potency Database (CPDB), 2022), this text covers carcinogen call and TD50 for eight compounds.

For `O=C1c2ccccc2-c2ccc3c4c(ccc1c24)-c1ccccc1C3=O`, the carcinogen call (mouse, strain B6C3F1, females, in feed, site: any site (literature study), lesion: several types, types named in the paper, dosed 106 weeks, study length 106 weeks) is “negative (inactive)” and the carcinogen call (rat, strain Fischer 344, females, in feed, site: any site (literature study), lesion: several types, types named in the paper, dosed 104 weeks, study length 104 weeks) was “negative (inactive)”. Further, the TD50 is 23900 mg/kg/day (mouse, strain B6C3F1, females, in feed, site: liver, lesion: hepatocellular adenoma + hepatocellular carcinoma + neoplastic nodule, dosed 106 weeks, study length 106 weeks); 10900 mg/kg/day (mouse, strain B6C3F1, males, in feed, site: all sites, lesion: lymphoma, dosed 106 weeks, study length 106 weeks); 4410 mg/kg/day (mouse, strain B6C3F1, males, in feed, site: any site (literature study), lesion: several types, types named in the paper, dosed 106 weeks, study length 106 weeks); 8610 mg/kg/day (mouse, strain B6C3F1, males, in feed, site: liver, lesion: hepatocellular adenoma + hepatocellular carcinoma + neoplastic nodule, dosed 106 weeks, study length 106 weeks); 19100 mg/kg/day (mouse, strain B6C3F1, males, in feed, site: lung, lesion: alveolar/bronchiolar adenoma + alveolar/bronchiolar carcinoma, dosed 106 weeks, study length 106 weeks); 787 mg/kg/day (inactive) (rat, strain Fischer 344, males, in feed, site: any site (literature study), lesion: several types, types named in the paper, dosed 104 weeks, study length 104 weeks). Moreover, the TD50 (rat, strain Fischer 344, males, in feed, site: liver, lesion: hepatocellular adenoma + hepatocellular carcinoma + neoplastic nodule, dosed 104 weeks, study length 104 weeks) stood at 2790 mg/kg/day.
With `ClCOCCCCOCCl`, where the note is “mouse, strain Ha/ICR, females, i.p., site: abdomen, lesion: sarcoma, dosed 81 weeks, study length 81 weeks”, the carcinogen call is “negative (inactive)”.
With `CC(C)(C)NCC(O)c1ccc(O)c(CO)c1` (stereo not drawn), the TD50 is, setting by setting: (rat, strain Charles River CD (Sprague-Dawley), females, in feed, site: mesovarium, lesion: leiomyoma, dosed 80 weeks, study length 80 weeks) 36.3 mg/kg/day; (rat, strain Charles River CD (Sprague-Dawley), females, in feed, site: mesovarium, lesion: leiomyoma, dosed 104 weeks, study length 104 weeks) 44.6 mg/kg/day.
On to `O=NN1CCOCC1`, for which the TD50 is, setting by setting: (hamster, strain Syrian Golden, females, in drinking water, site: any site (literature study), lesion: several types, types named in the paper, dosed 104 weeks, study length 104 weeks) 1.48 mg/kg/day; (hamster, strain Syrian Golden, females, in drinking water, site: larynx, lesion: several types, types named in the paper, dosed 104 weeks, study length 104 weeks) 15.4 mg/kg/day; (hamster, strain Syrian Golden, females, in drinking water, site: liver, lesion: several types, types named in the paper, dosed 104 weeks, study length 104 weeks) 51.6 mg/kg/day; (hamster, strain Syrian Golden, females, in drinking water, site: respiratory system, lesion: several types, types named in the paper, dosed 104 weeks, study length 104 weeks) 1.35 mg/kg/day; (hamster, strain Syrian Golden, females, in drinking water, site: trachea, lesion: mixed-cell mucoepidermoid papilloma, dosed 104 weeks, study length 104 weeks) 11.3 mg/kg/day; (hamster, strain Syrian Golden, males, in drinking water, site: any site (literature study), lesion: several types, types named in the paper, dosed 104 weeks, study length 104 weeks) 5.56 mg/kg/day. The TD50 was 11.5 mg/kg/day (hamster, strain Syrian Golden, males, in drinking water, site: larynx, lesion: several types, types named in the paper, dosed 104 weeks, study length 104 weeks); 9.14 mg/kg/day (hamster, strain Syrian Golden, males, in drinking water, site: liver, lesion: several types, types named in the paper, dosed 104 weeks, study length 104 weeks); 5.98 mg/kg/day (hamster, strain Syrian Golden, males, in drinking water, site: respiratory system, lesion: several types, types named in the paper, dosed 104 weeks, study length 104 weeks); 7.98 mg/kg/day (hamster, strain Syrian Golden, males, in drinking water, site: trachea, lesion: mixed-cell mucoepidermoid papilloma, dosed 104 weeks, study length 104 weeks); 0.325 mg/kg/day (rat, strain Fischer 344, females, in drinking water, site: adrenal medulla, lesion: pheochromocytoma, dosed 45 weeks, study length 126 weeks); 1.07 mg/kg/day (rat, strain Fischer 344, females, in drinking water, site: adrenal medulla, lesion: pheochromocytoma, dosed 100 weeks, study length 126 weeks). Moreover, the TD50 (rat, strain Fischer 344, females, in drinking water, site: esophagus, lesion: several types, types named in the paper, dosed 45 weeks, study length 126 weeks) worked out at 1.97 mg/kg/day; the TD50 (rat, strain Fischer 344, females, in drinking water, site: esophagus, lesion: squamous-cell papilloma, dosed 45 weeks, study length 126 weeks) turned out to be 2.53 mg/kg/day; the TD50 (rat, strain Fischer 344, females, in drinking water, site: liver, lesion: hemangiosarcoma, dosed 45 weeks, study length 126 weeks) was 0.666 mg/kg/day; the TD50 (rat, strain Fischer 344, females, in drinking water, site: liver, lesion: hemangiosarcoma, dosed 50 weeks, study length 73 weeks) is 0.348 mg/kg/day; the TD50 (rat, strain Fischer 344, females, in drinking water, site: liver, lesion: hemangiosarcoma, dosed 100 weeks, study length 126 weeks) was 0.63 mg/kg/day; the TD50 (rat, strain Fischer 344, females, in drinking water, site: liver, lesion: hepatocellular carcinoma, dosed 45 weeks, study length 126 weeks) was 0.564 mg/kg/day. Also, the TD50 is, setting by setting: (rat, strain Fischer 344, females, in drinking water, site: liver, lesion: hepatocellular carcinoma, dosed 50 weeks, study length 73 weeks) 0.0805 mg/kg/day; (rat, strain Fischer 344, females, in drinking water, site: liver, lesion: hepatocellular carcinoma, dosed 100 weeks, study length 126 weeks) 0.431 mg/kg/day; (rat, strain Fischer 344, females, in drinking water, site: liver, lesion: neoplastic nodule, dosed 45 weeks, study length 126 weeks) 1.28 mg/kg/day; (rat, strain Fischer 344, females, in drinking water, site: liver, lesion: neoplastic nodule, dosed 100 weeks, study length 126 weeks) 0.239 mg/kg/day; (rat, strain Fischer 344, females, in drinking water, site: liver, lesion: several types, types named in the paper, dosed 45 weeks, study length 126 weeks) 0.14 mg/kg/day; (rat, strain Fischer 344, females, in drinking water, site: liver, lesion: several types, types named in the paper, dosed 100 weeks, study length 126 weeks) 0.127 mg/kg/day. The compound further had a TD50 (rat, strain Fischer 344, females, in drinking water, site: thyroid gland, lesion: c-cell carcinoma, dosed 45 weeks, study length 126 weeks) of 0.363 mg/kg/day; a TD50 (rat, strain Fischer 344, females, in drinking water, site: thyroid gland, lesion: follicular-cell adenoma, dosed 100 weeks, study length 126 weeks) of 0.581 mg/kg/day; a TD50 (rat, strain Fischer 344, females, in drinking water, site: tongue, lesion: several types, types named in the paper, dosed 45 weeks, study length 126 weeks) of 6.54 mg/kg/day; a TD50 (rat, strain Fischer 344, females, in drinking water, site: tongue, lesion: squamous-cell papilloma, dosed 45 weeks, study length 126 weeks) of 50.2 mg/kg/day; a TD50 (rat, strain Fischer 344, females, in drinking water, site: tongue, lesion: squamous-cell papilloma, dosed 100 weeks, study length 126 weeks) of 3.49 mg/kg/day. Also, under “rat, strain Fischer 344, females, in drinking water, site: liver, lesion: several types, types named in the paper, dosed 50 weeks, study length 73 weeks”, the carcinogen call is “positive”.
Regarding `CCCCCCCCCCCCN(C)N=O`, the TD50 is 1.32 mg/kg/day (rat, strain Fischer 344, females, by gavage, site: lung, lesion: one or several types, types not named, dosed 30 weeks, study length 65 weeks); 0.656 mg/kg/day (rat, strain Fischer 344, females, by gavage, site: urinary bladder, lesion: one or several types, types not named, dosed 30 weeks, study length 65 weeks); 0.97 mg/kg/day (rat, strain Fischer 344, males, by gavage, site: all sites, lesion: leukemia, dosed 30 weeks, study length 112 weeks); 5.07 mg/kg/day (rat, strain Fischer 344, males, by gavage, site: forestomach, lesion: carcinoma, dosed 30 weeks, study length 112 weeks); 13.9 mg/kg/day (rat, strain Fischer 344, males, by gavage, site: forestomach, lesion: papilloma, dosed 30 weeks, study length 112 weeks); 8.98 mg/kg/day (rat, strain Fischer 344, males, by gavage, site: liver, lesion: hepatocellular carcinoma, dosed 30 weeks, study length 112 weeks). In addition, the TD50 by setting is: (rat, strain Fischer 344, males, by gavage, site: lung, lesion: adenocarcinoma, dosed 30 weeks, study length 112 weeks) 6.54 mg/kg/day; (rat, strain Fischer 344, males, by gavage, site: lung, lesion: adenoma, dosed 30 weeks, study length 112 weeks) 28.5 mg/kg/day; (rat, strain Fischer 344, males, by gavage, site: pancreatic islets, lesion: islet-cell carcinoma, dosed 30 weeks, study length 112 weeks) 2.75 mg/kg/day; (rat, strain Fischer 344, males, by gavage, site: urinary bladder, lesion: transitional-cell carcinoma, dosed 30 weeks, study length 112 weeks) 0.487 mg/kg/day. In addition, the carcinogen call is, setting by setting: (rat, strain Fischer 344, males, by gavage, site: any site (literature study), lesion: several types, types named in the paper, dosed 30 weeks, study length 112 weeks) “positive”; (rat, strain Fischer 344, males, by gavage, site: urinary bladder, lesion: transitional-cell carcinoma, dosed 28 weeks, study length 66 weeks) “positive”.
In the case of `CC(=O)NCc1nc(-c2ccc([N+](=O)[O-])o2)no1`, the TD50 is, setting by setting: (rat, strain Sprague-Dawley, females, in feed, site: any site (literature study), lesion: several types, types named in the paper, dosed 46 weeks, study length 66 weeks) 5.2 mg/kg/day; (rat, strain Sprague-Dawley, females, in feed, site: kidney/pelvis, lesion: transitional-cell carcinoma, dosed 46 weeks, study length 66 weeks) 59.6 mg/kg/day; (rat, strain Sprague-Dawley, females, in feed, site: lung, lesion: alveolar-cell carcinoma, dosed 46 weeks, study length 66 weeks) 59.6 mg/kg/day; (rat, strain Sprague-Dawley, females, in feed, site: mammary gland, lesion: adenocarcinoma, dosed 46 weeks, study length 66 weeks) 10.3 mg/kg/day; (rat, strain Sprague-Dawley, females, in feed, site: mammary gland, lesion: several types, types named in the paper, dosed 46 weeks, study length 66 weeks) 6.35 mg/kg/day.
Consider `Cc1c(O)cc2c(c1C)OC(C)(CCCC(C)CCCC(C)CCCC(C)C)CC2` (stereo not drawn), for which the TD50 reads like this: (mouse, strain B6C3F1, males, in feed, site: liver, lesion: hepatocellular carcinoma, dosed 96 weeks, study length 96 weeks) 5220 mg/kg/day; (mouse, strain B6C3F1, males, in feed, site: liver, lesion: several types, types named in the paper, dosed 96 weeks, study length 96 weeks) 3610 mg/kg/day.
Consider `C=CCOc1ccccc1OCC(O)CNC(C)C` (stereo not drawn), for which the TD50 (mouse, strain CF-1, females, in feed, site: liver, lesion: carcinoma, dosed 78 weeks, study length 91 weeks) was 2400 mg/kg/day (inactive); the TD50 (mouse, strain CF-1, females, in feed, site: lung, lesion: carcinoma, dosed 78 weeks, study length 78 weeks) was 425 mg/kg/day (inactive); the TD50 (mouse, strain CF-1, males, in feed, site: liver, lesion: carcinoma, dosed 78 weeks, study length 78 weeks) was 2620 mg/kg/day (inactive); the TD50 (mouse, strain CF-1, males, in feed, site: liver, lesion: parenchymal adenoma, dosed 78 weeks, study length 91 weeks) is 2120 mg/kg/day (inactive); the TD50 (rat, strain Charles River CD (Sprague-Dawley), males, in feed, site: liver, lesion: hepatocellular adenoma, dosed 78 weeks, study length 78 weeks) is 1680 mg/kg/day (inactive). For the same compound, the carcinogen call (mouse, strain CF-1, females, in feed, site: liver, lesion: one or several types, types not named, dosed 78 weeks, study length 78 weeks) was “negative (inactive)”; the carcinogen call (mouse, strain CF-1, females, in feed, site: lung, lesion: adenoma, dosed 78 weeks, study length 91 weeks) is “negative (inactive)”; the carcinogen call (mouse, strain CF-1, females, in feed, site: lung, lesion: neurofibrosarcoma, dosed 78 weeks, study length 91 weeks) was “negative (inactive)”; the carcinogen call (mouse, strain CF-1, males, in feed, site: lung, lesion: adenoma, dosed 78 weeks, study length 78 weeks) is “negative (inactive)”; the carcinogen call (mouse, strain CF-1, males, in feed, site: lung, lesion: adenoma, dosed 78 weeks, study length 91 weeks) is “negative (inactive)”; the carcinogen call (mouse, strain CF-1, males, in feed, site: lung, lesion: carcinoma, dosed 78 weeks, study length 78 weeks) is “negative (inactive)”. In addition, the carcinogen call (rat, strain Charles River CD (Sprague-Dawley), females, in feed, site: liver, lesion: one or several types, types not named, dosed 78 weeks, study length 78 weeks) is “negative (inactive)”.

The term TD50 denotes the 50% point of the dose-response relation for the toxic effect studied.
